How the values were obtained:
Type in all cases: cell-based
[1] = tested on: Pseudomonas aeruginosa ATCC 27853; assay: sandwich test, gauze pads (wound dressing); details: chlorine loading 0.47 ± 0.01 wt %, inoculum 6.12 logs
Protocol: (§1) Compound I at a concentration of 1% by weight was dissolved in ethyl alcohol at room temperature. Non-stick gauze pads sized 20.3×7.6 cm (8×3 inch) obtained from Curad® were soaked in the solution for 10 minutes. The gauze pads were then passed through a laboratory wringer (Birch Brothers Southern, Waxhaw, N.C., U.S.A.) at low pressure settings. This procedure was followed by drying the samples at room temperature overnight. The titrated oxidative chlorine loading of the gauze pads was 0.47±0.01 wt %.
(§2) Gauze pads impregnated with compound I and non-impregnated sterile gauze pads (used as received as controls) were challenged with Staphylococcus aureus (S. aureus, ATCC 6538), Escherichia coli(E. coli O157:H7, ATCC 43895), and Pseudomonas aeruginosa (P. aeruginosa, ATCC 27853). The bacteria were suspended in 100 μM phosphate buffer (pH 7) to produce a suspension of known population (colony forming units, CFU/mL). Then, an aliquot of 25 μL of this suspension was placed in the center of a 2.54×2.54 cm^2 gauze swatch, and a second identical swatch was placed on top. Both swatches were covered by a sterile weight to ensure sufficient contact with the bacteria. After predetermined contact times, samples were quenched by 5.0 mL of sterile 0.02 N sodium thiosulfate solution to neutralize the oxidative chlorine and thus terminate the disinfection action. Samples were vortexed for 2 minutes, and then serial dilutions were prepared using pH 7, 100 μM phosphate buffer and plated on Trypticase soy agar plates. After the plates were incubated at 37° C. for 24 hours, viable bacterial colonies were counted for the biocidal efficacy analysis.

[2] = tested on: Staphylococcus aureus ATCC 6538; assay: sandwich test, gauze pads (wound dressing); details: chlorine loading 0.47 ± 0.01 wt %, inoculum 6.00 logs
Protocol: as §1, §2

[3] = tested on: Escherichia coli O157:H7 ATCC 43895; assay: sandwich test, gauze pads (wound dressing); details: chlorine loading 0.47 ± 0.01 wt %, inoculum 5.86 logs
Protocol: as §1, §2

[4] = tested on: Staphylococcus aureus ATCC 6538; assay: sandwich contact test, polypropylene nonwoven face-piece material; details: inoculum 6.26 log
Protocol: (§3) Compound I (1-chloro-2,2,5,5-tetramethyl-imidazolindinone) at 1 wt %) was dissolved in ethyl alcohol solution at room temperature, and then 300 cm^2 pieces of polypropylene nonwoven fabrics were soaked in the solution for 10 minutes. The fabrics were then padded through a laboratory wringer (Birch Brothers Southern, Waxhaw, N.C., U.S.A.) at low pressure settings. This procedure was followed by drying the fabrics at room temperature for 24 hours. The control fabrics were untreated 22 g/m^2 and 50 g/m^2 polypropylene nonwovens.
(§4) Two types of tests were conducted in order to determine the biocidal efficacy of the face mask embodiments. Staphylococcus aureus (S. aureus, ATCC 6538) was used as a Gram-positive bacterium and Escherichia coli(E. coli O157:H7, ATCC 43895) was used as a Gram-negative bacterium in order to challenge the treated (impregnated with compound I) and non-treated (control) fabrics.
(§5) In the first method, a “sandwich test” was used (see Worley et al., “Novel N-halamine Siloxane Monomers and Polymers for Preparing Biocidal Coatings,” Surf Coat. Int., Part B, 2005; 88:93). In this procedure, bacteria were suspended in 100 μM phosphate buffer (pH 7) to produce a suspension of known concentration of bacteria (colony forming units, CFU/mL). Then, an aliquot of 25 μL of this suspension was placed in the center of a 2.54 cm square swatch, and a second identical swatch was placed on top. Both swatches were covered by a sterile weight to ensure sufficient contact with the bacteria. After predetermined contact times, samples were quenched by 5.0 mL of sterile 0.02 N sodium thiosulfate solution to neutralize the oxidative chlorine and thus terminate the disinfection action. Samples were vortexed for 2 minutes, and then serial dilutions were prepared using pH 7, 100 μM phosphate buffer and plated on Trypticase soy agar plates. After incubating the plates at 37° C. for 24 hours, bacterial colonies were counted for the biocidal efficacy analysis. For each contact time a single fabric swatch sandwich was vortexed in a quenching solution to wash the bacteria into a suspension which was immediately plated into duplicate serial dilutions followed by incubation and counting the viable colonies of bacteria. All experiments were performed at least twice (on different days) using different bacterial inocula.
(§6) Antimicrobial efficacy of the mask materials was analyzed by the sandwich contact test method. The antimicrobial efficacies of the treated (impregnated with compound I) and non-treated (control) swatches were evaluated by challenging both types of fabrics against S. aureus and E. coli O157:H7 where the bacteria inoculum population was 1.80×10^6 CFU and 1.27×10^6 CFU, respectively. In Table 2, antimicrobial results are summarized at different contact time intervals.

[5] = tested on: Escherichia coli O157:H7 ATCC 43895; assay: as above; details: inoculum 6.10 log
Protocol: as §3, §4, §5, §6

[6] = contact time 1 min, listed as compound I
[7] = 22 g/m^2 fabric, Cl^+ % = 0.52, contact time 5 min
[8] = 22 g/m^2 fabric, Cl^+ % = 0.52, contact time 10 min
[9] = 22 g/m^2 fabric, Cl^+ % = 0.52, contact time 15 min
[10] = 22 g/m^2 fabric, Cl^+ % = 0.52, contact time 30 min
[11] = 50 g/m^2 fabric, Cl^+ % = 0.52, contact time 5 min
[12] = 50 g/m^2 fabric, Cl^+ % = 0.52, contact time 10 min
[13] = 50 g/m^2 fabric, Cl^+ % = 0.52, contact time 15 min
[14] = 50 g/m^2 fabric, Cl^+ % = 0.52, contact time 30 min

Compound: CC1(C)NC(=O)C(C)(C)N1Cl [Compound I, 1-chloro-2,2,5,5-tetramethyl-4-imidazolidinone]
- Bacterial Reduction (log) P. aeruginosa ([1]; contact time 1 min): 6.12 log
- Bacterial Reduction (log) P. aeruginosa [1, 6]: about 6 log
- Bacterial Reduction (log) P. aeruginosa ([1]; contact time 5 min): 6.12 log
- Bacterial Reduction (log) P. aeruginosa ([1]; contact time 10 min): 6.12 log
- Bacterial Reduction (log) P. aeruginosa ([1]; contact time 30 min): 6.12 log
- Bacterial reduction (log) S. aureus ([2]; contact time 1 min): 3.07 log
- Bacterial reduction (log) S. aureus ([2]; contact time 5 min): 6.00 log
- Bacterial reduction (log) S. aureus ([2]; contact time 10 min): 6.00 log
- Bacterial reduction (log) S. aureus ([2]; contact time 30 min): 6.00 log
- Bacterial Reduction (log) E. coli O157:H7 ([3]; contact time 1 min): 5.86 log
- Bacterial Reduction (log) E. coli O157:H7 [3, 6]: about 6 log
- Bacterial Reduction (log) E. coli O157:H7 ([3]; contact time 5 min): 5.86 log
- Bacterial Reduction (log) E. coli O157:H7 ([3]; contact time 10 min): 5.86 log
- Bacterial Reduction (log) E. coli O157:H7 ([3]; contact time 30 min): 5.86 log
- Bacterial reduction (log) S. aureus [4, 7]: 4.13 log
- Bacterial reduction (log) S. aureus [4, 8]: 6.26 log
- Bacterial reduction (log) S. aureus [4, 9]: 6.26 log
- Bacterial reduction (log) S. aureus [4, 10]: 6.26 log
- Bacterial reduction (log) S. aureus [4, 11]: 6.26 log
- Bacterial reduction (log) S. aureus [4, 12]: 6.26 log
- Bacterial reduction (log) S. aureus [4, 13]: 6.26 log
- Bacterial reduction (log) S. aureus [4, 14]: 6.26 log
- Bacterial reduction (log) E. coli [5, 7]: 3.68 log
- Bacterial reduction (log) E. coli [5, 8]: 6.10 log
- Bacterial reduction (log) E. coli [5, 9]: 6.10 log
- Bacterial reduction (log) E. coli [5, 10]: 6.10 log
- Bacterial reduction (log) E. coli [5, 11]: 3.80 log
- Bacterial reduction (log) E. coli [5, 12]: 6.10 log
- Bacterial reduction (log) E. coli [5, 13]: 6.10 log
- Bacterial reduction (log) E. coli [5, 14]: 6.10 log
